Here are results for eleven compounds from patent US20110009628A1, “Compounds and Compositions for Modulating Lipid Levels and Methods of Preparing Same” (priority 2009, published 2011).

Counter-ions that a name gives are not always drawn. Like-named read-outs stand apart in the source and are kept apart here.

Data set [1] can be described thus: Pharmacokinetics of Compound 141 in male Wistar rats, intravenous and oral. The class given is in vivo. Particulars: for MRT last: read-out: MRT(0-t); for MRT inf: read-out: MRT(0-∞). The method, then: For intravenous administration, blood samples were collected via retro-orbital puncture into heparinized tubes at pre-dose and 0.083, 0.25, 0.5, 1, 2, 6, 8, and 24 hours (hr) post-dose.
For oral administration, blood samples were collected at following time points: 0, 0.167, 0.417, 0.75, 1, 2, 4, 6, 8, and 24 hr. After sample collection, plasma samples were stored at −20° C. until bioanalysis. Concentrations of 72(+) and 72(−) in plasma samples were determined using a high performance liquid chromatography/mass spectrometry (HPLC/MS/MS) method.
*F(%)=(Doseiv×AUCoral(0-t))/(Doseoral×AUCiv(0-t))×100%. […]
The pharmacokinetic profile and bioavailability of Compound 141 (phosphate salt of Compound 127) in male Wistar rats following single intravenous (iv) and oral administration (p.o.) were measured according to the procedures of Example 4 and are summarized in Table 11. The pharmacokinetic profile of Compound 162 in male Golden Syrian masters following oral administration (pox) is summarized in Table 12.

The test system of data set [2] is PCSK9 mRNA expression in HepG2 cells. Kind of data set: PCSK9 mRNA expression in HepG2 cells, quantitative real-time RT-PCR (Example 12). Type of data set: cell-based, human. Particulars: 24 hours. The method, then:
(§1) The effects of compounds on the mRNA expressions of LDLR and PCSK9 were examined using quantitative real-time RT-PCR assays. HepG2 cells were treated with various compounds at 10 and 40 uM concentrations for 24 hours. Total RNA was isolated and […] was used to generate cDNA in a reaction containing random primers and M-MLV at 37° C. for 1 h in a volume of 25 μL. Real-time PCR was performed on the cDNA using MCEP REALPLEX 2 SYSTEM (Eppendorf) and Universal MasterMix (Applied Biosystems). Human LDLR, PCSK9, and GAPDH Pre-Developed TaqMan Assay Reagents (Applied Biosystems) were used to assess the levels of mRNA expressions in HepG2. The levels of LDLR and PCSK9 mRNA were normalized to that of GAPDH. Each RNA samples was assayed in duplicate. The fold activity was calculated by dividing mRNA abundance in compound treated cells with that of control.

For data set [3], the system named is LDLR mRNA expression in HepG2 cells. Kind of data set: LDLR mRNA expression in HepG2 cells, quantitative real-time RT-PCR (Example 12). The class given is cell-based, human. To be noted: Homo sapiens, 24 hours; for fold induction at 10 µM: read-out: Activity on LDLR mRNA at 10 uM (fold of control); for fold induction at 40 µM: read-out: Activity on LDLR mRNA at 40 uM (fold of control). The protocol: as §1

The test system of data set [4] is LDL ligand uptake activity in HepG2 cells. Kind of data set: DiI-LDL uptake in HepG2 cells (Example 12). Type of data set: cell-based, human. The protocol:
The combined beneficial effects of these novel compounds on elevation of LDLR mRNA levels likely through the mechanism of mRNA stabilization and their inhibitory activity towards PCSK9, the secreted protease that degrades LDLR protein, result in strong increases in LDL ligand uptake activity through increased receptor surface abundance. […] Briefly, HepG2 cells (2×10^5 cells/well) in 24-well culture plates were treated with various compounds at 10 and 40 uM concentrations for 20 hours. The fluorescent 1.1′-dioctadecyl-3,3,3′,3′-tetramethylindocarbocyanin perchlorate (DiI-LDL) (Biomedical Technologies, Stoughton, Mass.) at a concentration of 2 μg/ml was added to cells at the end of treatment. After 4 hours, the medium was removed; cells were washed with cold PBS, and were examined immediately under a fluorescent microscope (Nikon) at 200× amplification. The fluorescent intensity in compound-treated cells was compared to that in untreated control cells. […]

Setting [5] is: Wistar, rat, plasma, male rats, IV (2 mg/kg), mean.
The mark [6] stands for this setting: Wistar, rat, plasma, male rats, PO (10 mg/kg), mean.
[7] abbreviates: 10 uM, 20 hours (first symbol of cell).
Where [8] appears, read: 40 uM, 20 hours (second symbol of cell).

As for `COc1cc2c(cc1OC)C1Cc3ccc(OC)c(OS(=O)(=O)c4cccc(F)c4)c3CN1CC2` (racemic) [Compound 141, 2,3,10-Trimethoxy-5,6,7,8,13,13a-hexahydroisoquinolino[2,1-b]isoquinolin-9-yl 3-fluorobenzenesulfonate phosphate Salt], in data set [1] (setting [5]), the AUC(0-inf) amounted to 1.08 µg·h/mL, the AUC(0-t) is 1.07 µg·h/mL, the Cmax turned out to be 1.55 µg/mL and the Tmax stood at 0.083 h. Also, in data set [1] (setting [5]), the MRT last was 1.46 h and the MRT inf turned out to be 1.62 h. Further, the Vd in data set [1] (Wistar, rat, plasma, male rats, IV (2 mg/kg), mean, read-out: Vz) came out at 8.31 L/kg. In data set [1] (setting [6]), the total exposure AUC(0-inf) came out at 3.38 µg·h/mL, the AUC(0-t) was found to be 3.36 µg·h/mL, the Cmax is 0.826 µg/mL and the Tmax is 0.33 h. In addition, in data set [1] (setting [6]), the MRT last stood at 4.25 h and the MRT inf came to 4.44 h. In addition, in data set [1] (male Wistar rats, iv and p.o.), the “pharmacokinetic properties and bioavailability, in words” value is “excellent pharmacokinetic properties and good bioavailability”. In data set [1] (male rats, IV (2 mg/kg), mean), this compound had a CLz of 1.87 L/h/kg and a t1/2z of 3.16 h. In addition, the “F*” value in data set [1] (male rats, PO (10 mg/kg) vs IV (2 mg/kg), mean) stood at 62.75%. The t1/2z in data set [1] (male rats, PO (10 mg/kg), mean) was 3.62 h.
For the compound `CCOc1ccc2c(c1)CCN1Cc3c(ccc(OC)c3OS(=O)(=O)c3ccccc3)CC21` (stereo not drawn) [Compound 133, 3-Ethoxy-10-methoxy-5,6,7,8,13,13a-hexahydroisoquinolino[2,1-b]isoquinolin-9-yl benzenesulfonate], in data set [2], the “PCSK9 mRNA level at 10 uM (fold of control)” value is 1.04 ± 0.08 fold of control and the “Activity on PCSK9 mRNA reduction at 40 uM (fold of control)” value was 0.49 ± 0.01 fold of control. Also, in data set [3], the fold induction at 10 µM is 4.92 and the fold induction at 40 µM was 6.61 ± 0.16. Further, the “Activity in LDL uptake (relative to control)” value in data set [4] (setting [7]) is listed as “++”. Moreover, in data set [4] (setting [8]), the “Activity in LDL uptake (relative to control)” value is on record as “+”.
As for `COc1ccc2c(c1OS(=O)(=O)c1ccccc1)CN1CCc3ccccc3C1C2` (stereo not drawn) [Compound 134, 10-Methoxy-5,6,7,8,13,13a-hexahydroisoquinolino[2,1-b]isoquinolin-9-yl benzenesulfonate], in data set [2], the “PCSK9 mRNA level at 10 uM (fold of control)” value is on record as 1.25 ± 0.03 fold of control and the “Activity on PCSK9 mRNA reduction at 40 uM (fold of control)” value is 0.86 ± 0.02 fold of control. In data set [3], the fold induction at 10 µM is 1.41 ± 0.07 and the fold induction at 40 µM was found to be 6.23 ± 0.64. The “Activity in LDL uptake (relative to control)” value in data set [4] (setting [8]) is listed as “+”.
As to `COc1cc2c(cc1C(=O)O)C1Cc3ccc(OC)c(OS(=O)(=O)c4ccccc4)c3CN1CC2` (stereo not drawn) [Compound 135, 3,10-Dimethoxy-9-(phenylsulfonyloxy)-5,6,7,8,13,13a-hexahydro isoquinolino[3,2-a]isoquinoline-2-carboxylic acid], in data set [2], the “PCSK9 mRNA level at 10 uM (fold of control)” value is 0.97 ± 0.04 fold of control and the “Activity on PCSK9 mRNA reduction at 40 uM (fold of control)” value is listed as 1.10 ± 0.14 fold of control. Besides, in data set [3], the fold induction at 10 µM worked out at 1.72 ± 0.13 and the fold induction at 40 µM stood at 1.86. Further, in data set [4] (setting [8]), the “Activity in LDL uptake (relative to control)” value was “+”.
For the compound `COc1cc2c(cc1C(=O)N(C)C)C1Cc3ccc(OC)c(OS(=O)(=O)c4ccccc4)c3CN1CC2` (stereo not drawn) [Compound 136, 2-(N,N-dimethylcarbamoyl)-3,10-dimethoxy-5,6,7,8,13,13a-hexahydroisoquinolino[2,1-b]isoquinolin-9-yl benzenesulfonate], in data set [2], the “PCSK9 mRNA level at 10 uM (fold of control)” value is listed as 0.48 ± 0.03 fold of control and the “Activity on PCSK9 mRNA reduction at 40 uM (fold of control)” value is 0.62 ± 0.02 fold of control. Further, in data set [3], the fold induction at 10 µM is 0.91 ± 0.05 and the fold induction at 40 µM stood at 1.92 ± 0.32. For the same compound, the “Activity in LDL uptake (relative to control)” value in data set [4] (setting [7]) is “+”. Also, the “Activity in LDL uptake (relative to control)” value in data set [4] (setting [8]) is “++”.
Turning to `COc1cc2c(cc1C(=O)NCCO)C1Cc3ccc(OC)c(OS(=O)(=O)c4ccccc4)c3CN1CC2` (stereo not drawn) [Compound 137, 2-[N-(2-hydroxyethyl)carbamoyl]-3,10-dimethoxy-5,6,7,8,13,13a-hexahydroisoquinolino[2,1-b]isoquinolin-9-yl benzenesulfonate], in data set [2], the “PCSK9 mRNA level at 10 uM (fold of control)” value is recorded as 0.45 ± 0.06 fold of control and the “Activity on PCSK9 mRNA reduction at 40 uM (fold of control)” value is listed as 0.34 ± 0.00 fold of control. In data set [3], the fold induction at 10 µM is 1.61 ± 0.19 and the fold induction at 40 µM was found to be 2.66 ± 0.04. In addition, the “Activity in LDL uptake (relative to control)” value in data set [4] (setting [7]) is reported as “+”. For the same compound, in data set [4] (setting [8]), the “Activity in LDL uptake (relative to control)” value is “+++”.
Consider `COc1cc2c(cc1OCCO)CCN1Cc3c(ccc(OC)c3OS(=O)(=O)c3ccccc3)CC21` (stereo not drawn) [Compound 138, 3-(2-Hydroxyethoxy)-2,10-dimethoxy-5,6,7,8,13,13a-hexahydroisoquinolino[2,1-b]isoquinolin-9-yl benzenesulfonate], for which, in data set [2], the “PCSK9 mRNA level at 10 uM (fold of control)” value is on record as 0.63 ± 0.14 fold of control and the “Activity on PCSK9 mRNA reduction at 40 uM (fold of control)” value is recorded as 0.35 ± 0.02 fold of control. For the same compound, in data set [3], the fold induction at 10 µM is 1.6 ± 0.29 and the fold induction at 40 µM is 2.45 ± 0.2. Moreover, the “Activity in LDL uptake (relative to control)” value in data set [4] (setting [7]) was “+”. Besides, the “Activity in LDL uptake (relative to control)” value in data set [4] (setting [8]) was “+++”.
With `COc1cc2c(cc1OC)C1C(C)c3ccc(OC)c(OS(=O)(=O)c4ccccc4)c3CN1CC2` (stereo not drawn) [Compound 139, 2,3,10-Trimethoxy-13-methyl-5,6,7,8,13,13a-hexahydro isoquinolino[2,1-b]isoquinolin-9-yl benzenesulfonate], in data set [2], the “PCSK9 mRNA level at 10 uM (fold of control)” value is recorded as 0.46 ± 0.04 fold of control and the “Activity on PCSK9 mRNA reduction at 40 uM (fold of control)” value is listed as 0.27 ± 0.02 fold of control. In data set [3], the fold induction at 10 µM was found to be 11.5 ± 1.29 and the fold induction at 40 µM came out at 3.02 ± 0.34. In data set [4] (setting [7]), the “Activity in LDL uptake (relative to control)” value was “++/++”. For the same compound, the “Activity in LDL uptake (relative to control)” value in data set [4] (setting [8]) was “++/++”.
As to `COc1ccc2c(c1)CCN1Cc3c(ccc(OC)c3OS(=O)(=O)c3ccccc3)C(C)C21` (stereo not drawn) [Compound 140, 3,10-Dimethoxy-13-methyl-5,6,7,8,13,13a-hexahydro isoquinolino[2,1-b]isoquinolin-9-yl benzenesulfonate], in data set [2], the “PCSK9 mRNA level at 10 uM (fold of control)” value is given as 0.43 ± 0.08 fold of control and the “Activity on PCSK9 mRNA reduction at 40 uM (fold of control)” value is listed as 0.51 ± 0.08 fold of control. Besides, in data set [3], the fold induction at 10 µM came out at 6.65 ± 0.68 and the fold induction at 40 µM turned out to be 8.6 ± 2. Also, the “Activity in LDL uptake (relative to control)” value in data set [4] (setting [7]) is listed as “++/++”. Besides, the “Activity in LDL uptake (relative to control)” value in data set [4] (setting [8]) is “++/++”.
For the compound `COc1ccc2c(c1OS(=O)(=O)c1ccccc1)CN1CCc3cc(OCCO)ccc3C1C2` (stereo not drawn) [Compound 142, 3-(2-Hydroxyethoxy)-10-methoxy-5,6,7,8,13,13a-hexahydroisoquinolino[2,1-b]isoquinolin-9-yl benzenesulfonate], in data set [2], the “PCSK9 mRNA level at 10 uM (fold of control)” value was 0.62 ± 0.07 fold of control and the “Activity on PCSK9 mRNA reduction at 40 uM (fold of control)” value is 0.52 ± 0.02 fold of control. Moreover, in data set [3], the fold induction at 10 µM was determined as 2.64 ± 0.01 and the fold induction at 40 µM is 13 ± 1.96. Besides, the “Activity in LDL uptake (relative to control)” value in data set [4] (setting [7]) is “+”. Also, in data set [4] (setting [8]), the “Activity in LDL uptake (relative to control)” value is reported as “++”.
Regarding `COc1cc2c(cc1OCCO)C1Cc3ccc(OC)c(OS(=O)(=O)c4ccccc4)c3CN1CC2` (stereo not drawn) [Compound 143, 2-(2-hydroxyethoxy)-3,10-dimethoxy-5,6,7,8,13,13a-hexahydroisoquinolino[2,1-b]isoquinolin-9-yl benzenesulfonate], in data set [2], the “PCSK9 mRNA level at 10 uM (fold of control)” value is 1.09 ± 0.09 fold of control and the “Activity on PCSK9 mRNA reduction at 40 uM (fold of control)” value is given as 0.48 ± 0.06 fold of control. Also, in data set [3], the fold induction at 10 µM was 1.87 ± 0.03 and the fold induction at 40 µM came to 15 ± 1.68. In addition, the “Activity in LDL uptake (relative to control)” value in data set [4] (setting [8]) was “++”.
